Experimental data: PubChem BioAssay (NCI)
Values joined by “and” are separate entries in the source; they are usually repeats but may differ in a detail not shown here. Identical values can stand only once.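 Following 48 hours of exposure in 96-well plates, responses at five concentrations were used to interpolate endpoints linearly. The concentration for 50% growth inhibition is given as GI50. Definition used: TGI = concentration required for complete inhibition of growth.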

Columns and labels:
Experiment in all cases: DTP human tumour cell line panel, 48 h
IGROV1 ovarian = tested on: IGROV1 ovarian
DLD-1 colon = tested on: DLD-1 colon
PC-3 prostate = tested on: PC-3 prostate
NCI-H226 lung = tested on: NCI-H226 lung
SW-620 colon = tested on: SW-620 colon
RPMI-8226 leukemia = tested on: RPMI-8226 leukemia
SF-295 CNS = tested on: SF-295 CNS
DMS 114 small cell lung = tested on: DMS 114 small cell lung
RXF 393 renal = tested on: RXF 393 renal
NCI/ADR-RES ovarian = tested on: NCI/ADR-RES ovarian

Compound | TGI (IGROV1 ovarian) | TGI (DLD-1 colon) | GI50 (PC-3 prostate) | TGI (PC-3 prostate) | TGI (NCI-H226 lung) | TGI (SW-620 colon) | TGI (RPMI-8226 leukemia) | TGI (SF-295 CNS) | TGI (DMS 114 small cell lung) | TGI (RXF 393 renal) | GI50 (NCI/ADR-RES ovarian) | TGI (NCI/ADR-RES ovarian) | GI50 (IGROV1 ovarian) | GI50 (DLD-1 colon) | GI50 (SW-620 colon) | GI50 (SF-295 CNS) | GI50 (DMS 114 small cell lung) | GI50 (RXF 393 renal)
CC1=C(C(=O)Nc2cc(F)c(F)cc2F)C(c2ccc(N(C)C)cc2)C(C(=O)Nc2cc(F)c(F)cc2F)=C(C)N1 | > 100 µM | > 100 µM | 13.7 µM | > 100 µM | > 92.9 µM | > 100 µM | > 68.6 µM | > 77.2 µM | 62.8 µM | 64.3 µM | 41.2 µM | > 100 µM |  |  |  |  |  | 
O=C1/C(=C/c2ccccc2)CN(C(=O)/C=C/c2ccccc2)C/C1=C\c1ccccc1 | 22.2 µM | 11.3 µM |  | 4.33 µM | 60.6 µM | 5.28 µM | 10.8 µM | 17 µM | > 43.8 µM | 30.4 µM |  |  |  |  |  |  |  | 
CC12CC(Br)(Br)C(=O)C3C1CCCC32 | 27.2 µM | 13.6 µM |  | 25.6 µM | 27.2 µM | 5.22 µM | 9.74 µM | 29.5 µM | 16.2 µM | 6.04 µM |  | 6.8 µM |  |  |  |  |  | 
CC(C)CC1CC2C(=O)N(c3ccccc3)C(=O)C2c2[nH]c3ccccc3c21 (stereo not drawn) | 61.9 µM | > 100 µM |  |  | 66.1 µM | > 100 µM | > 100 µM | > 94.4 µM | 52.7 µM | 44.9 µM |  |  |  |  |  |  |  | 
CCOC(=O)c1ccc(N[C@@H]2c3cc4c(cc3C(c3cc(OC)c(O)c(OC)c3)[C@H]3C(=O)OCC32)OCO4)cc1 (stereo partly drawn) | 10 µM | 8.02 µM |  | 20.6 µM | 0.719 µM and 1.95 µM | 28.4 µM | 7.08 µM | 0.904 µM and 2.2 µM | 3.65 µM | 5.93 µM |  | 6.41 µM | 0.962 µM | 0.877 µM | 0.536 µM | 0.238 µM and 0.241 µM | 0.326 µM | 0.426 µM and 1.95 µM
O=C1C2C3C=CC(C2C(=O)N1CN1CCOCC1)C1C2C(=O)N(CN4CCOCC4)C(=O)C2C31 (stereo not drawn) | > 94.6 µM | > 100 µM |  | > 100 µM | > 84.3 µM | > 69.8 µM | > 71.9 µM | 98.9 µM | 34.1 µM | > 65.2 µM |  | > 100 µM |  |  |  |  |  | 
CC1Nc2ccccc2NC1C=C(C#N)C#N (stereo not drawn) | 37.8 µM | 30.2 µM |  |  | 36.9 µM | 25.1 µM | 29.2 µM | 28.9 µM | 40.7 µM | 31.3 µM |  |  |  |  |  |  |  | 
